Experimental data taken from the NIST ThermoML archive (doi:10.1016/j.fluid.2013.07.044).

Assay: Boiling temperature at pressure P
Settings: Liquid, Ebulliometric method (Recirculating still)

CCCCCCCC [octane]
Settings | Boiling temperature at pressure P [°C]
22.95 kPa | 79.68
29.98 kPa | 87.07
37.87 kPa | 93.74
44.82 kPa | 98.74
52.81 kPa | 103.78
59.85 kPa | 107.72
66.66 kPa | 111.21
75.23 kPa | 115.23
82.72 kPa | 118.44
89.51 kPa | 121.17
99.01 kPa | 124.72

CCO [ethanol]
Settings | Boiling temperature at pressure P [°C]
20.14 kPa | 42.46
30.24 kPa | 50.67
40.31 kPa | 56.77
50.39 kPa | 61.69
70.33 kPa | 69.34
80.63 kPa | 72.62
85.67 kPa | 74.11
98.45 kPa | 77.53
100.79 kPa | 78.13
110.86 kPa | 80.53
120.93 kPa | 82.77
131.02 kPa | 84.84
141.1 kPa | 86.79
151.1 kPa | 88.62
160 kPa | 90.41
170 kPa | 92.09
180 kPa | 93.62
190 kPa | 95.16
200 kPa | 96.60

CCCO [propan-1-ol]
Settings | Boiling temperature at pressure P [°C]
69.79 kPa | 87.71
74.92 kPa | 89.5
79.6 kPa | 90.96
84.8 kPa | 92.6
89.78 kPa | 93.99
94.77 kPa | 95.37
99.7 kPa | 96.67
105.14 kPa | 98.2
110.1 kPa | 99.27
113.19 kPa | 100.00
120.75 kPa | 101.73
130.1 kPa | 103.76
171 kPa | 111.42
199.9 kPa | 115.99
228.5 kPa | 120.00
229.9 kPa | 120.20
260 kPa | 123.98
290 kPa | 127.42
310 kPa | 129.56
330 kPa | 131.59
350 kPa | 133.54
380 kPa | 136.28
400 kPa | 138.03
420 kPa | 139.69
450 kPa | 142.08
480 kPa | 144.37
500 kPa | 145.81
520 kPa | 147.22
530 kPa | 147.91
550 kPa | 149.26
561.5 kPa | 150.01

C1CCCCC1 [cyclohexane]
Settings | Boiling temperature at pressure P [°C]
24.08 kPa | 39.63
30.7 kPa | 45.81
38.72 kPa | 51.92
46.85 kPa | 57.17
55.2 kPa | 61.86
61.52 kPa | 65.06
69.06 kPa | 68.52
77.87 kPa | 72.22
85.44 kPa | 75.13
91.68 kPa | 77.38
101.32 kPa | 80.63

CCCCCCC [heptane]
Settings | Boiling temperature at pressure P [°C]
10.23 kPa | 35.76
16.91 kPa | 47.28
23.5 kPa | 55.43
35.39 kPa | 66.27
56.16 kPa | 79.51
67.57 kPa | 85.09
74.44 kPa | 88.22
79.37 kPa | 90.30
86.51 kPa | 93.16
100.11 kPa | 98.06
